Assay results taken from article PMC4794788, “Cell‐free synthesis of isotopically labelled peptide ligands for the functional characterization of G protein‐coupled receptors” (FEBS Open Bio, 2015).
Where “and” joins values, the source holds several entries; their conditions need not be identical. Equal entries are not always repeated. Entries after “also recorded” stand apart in the source; their conditions may differ.

How the values were obtained:
[1] = Solubility/precipitation of cell‐free translated peptide in the reaction mix; type: physicochemical; details: soluble vs pellet fraction
Experimental: Complement 5a is flanked by an N‐terminal 6x His tag followed by a tobacco etch virus (TEV) cleavage site. […] Expression of both constructs is controlled by a T7 promoter. Cell‐free synthesis was accomplished using a homemade S30 extract from E. coli 6. The extract was prepared from the E. coli A19 strain, described in detail in 6. The T7 RNA polymerase was produced and purified as published 50. Cell‐free reactions were executed in continuous exchange mode by using different sizes of D‐Tube™ dialyzers (Merck Millipore) (mini for reactions containing labelled amino acids and maxi for reactions with unlabeled amino acids) and a 1 : 17 ratio between reaction (RM) and feeding mix (FM). Mini D‐tube™ dialyzers were placed into 2 mL tubes filled with feeding mix, maxi dialyzers into 50 mL tubes, respectively. […] Reactions were incubated at 30 °C, 100 rpm in an Infors Multitron shaker incubator (Infors, Bottmingen, Switzerland) overnight. Cell‐free reactions were analysed by SDS/PAGE using 10% Bis/Tris Novex NuPAGE gels (Life Technologies).

[2] = target: T1, human complement 5a receptor (C5aR) (Homo sapiens, UniProt P21730); assay: Competition binding against [^3H]‐C5a^CF at C5aR in Sf9 membranes; details: read-out: KI (inhibition constant)
T1 construct: 10x His (N); FLAG (N); StrepII (C); made in house; host or cells: Sf9 insect cells (recombinant baculovirus, pOET5 / flashBAC); membrane preparation
T1 sequence (P21730 1-350): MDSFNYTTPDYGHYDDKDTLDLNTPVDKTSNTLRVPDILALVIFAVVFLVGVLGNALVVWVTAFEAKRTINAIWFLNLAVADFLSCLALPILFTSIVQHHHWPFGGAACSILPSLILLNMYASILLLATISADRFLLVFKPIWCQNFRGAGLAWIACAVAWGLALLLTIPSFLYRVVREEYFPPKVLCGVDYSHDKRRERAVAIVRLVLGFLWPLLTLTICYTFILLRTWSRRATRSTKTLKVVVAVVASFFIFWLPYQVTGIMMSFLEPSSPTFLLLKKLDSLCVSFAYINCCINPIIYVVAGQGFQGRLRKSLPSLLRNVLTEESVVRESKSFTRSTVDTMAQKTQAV
Source text: The complement 5a receptor was coproduced with Gαi2 in Sf9 insect cells. The cDNA encoding the human complement 5a receptor flanked by an N‐terminal 10x His and FLAG tag and a C‐terminal StrepII tag was cloned into the pOET5 transfer vector (Oxford Expression Technologies, Oxford, UK). pOET5 contains two expression cassettes, the receptor is expressed under the control of a polyhedron promoter; Gαi2 expression is regulated by a p10 promoter. Recombinant baculoviruses were generated with the flashBAC protein expression system (Oxford Expression Technologies) according to manufacturer's instructions. […] Total membrane protein content was determined by the bicinchoninic acid (BCA) method using bovine serum albumin as the standard.
For the determination of binding parameters, membranes containing the respective receptors (10–50 μg total membrane protein) were incubated with cell‐free synthesized tritium‐labelled ligands in varying concentrations. Binding was terminated by rapid filtration over glass fibre filters pretreated with 0.3% polyethyleneimine using a Brandel harvester (Brandel, Alpha Biotech Ltd, Killearn, UK) and analysed by liquid scintillation counting. […]
Data are represented as means ± SEM from three or two independent experiments performed in triplicate and analysed in […] […]

[3] = test system: C5aR; details: literature comparison; cited from earlier work
Source text: Table 1 Binding parameters of cell‐free synthesized radioligands | column: Literature IC50 [nM]

[4] = target: endothelin receptors (Table 1: compared with ETBR); details: determined with ^125I‐ET‐1 on receptors from native human tissues; literature comparison; cited from earlier work
[5] = target: C5aR; details: C5aR in native human tissues; literature comparison; cited from earlier work
Experimental: Table 1 Binding parameters of cell‐free synthesized radioligands | column: Literature KD [nM] || As the interaction between C5a and its receptor is mainly mediated by the disulphide bridged core region of C5a (residues 21–55, 22) and the C‐terminal region (especially Arg^74 30) the N‐terminal hexa‐histidine tag was not removed. The cell‐free synthesized ligand binds to the complement 5a receptor with a dissociation constant of 1.18 ± 0.27 nM (Fig. 4A), which corresponds to values determined by Gerard and Gerard for C5aR in native human tissues (1 nM 31, Table 1). Competition experiments with the unlabelled small molecule inverse agonist NDT 9513727 and the peptide antagonist H2N‐ChaW resu ...

[6] = with DsbA and reduced glutathione (GSH) replacing DTT

Molecule: CC[C@H](C)[C@H](NC(=O)[C@H](CC(=O)O)NC(=O)[C@H](CC(C)C)NC(=O)[C@H](Cc1cnc[nH]1)NC(=O)[C@@H]1CSSC[C@H](N)C(=O)N[C@@H](CO)C(=O)N[C@H]2CSSC[C@H](NC(=O)[C@H](CCC(=O)O)NC(=O)[C@H](CCCCN)NC(=O)[C@H](CC(=O)O)NC(=O)[C@H](CCSC)NC(=O)[C@H](CC(C)C)NC(=O)[C@H](CO)NC(=O)[C@H](CO)NC2=O)C(=O)N[C@@H](C(C)C)C(=O)N[C@@H](Cc2ccc(O)cc2)C(=O)N[C@@H](Cc2ccccc2)C(=O)N1)C(=O)N[C@H](C(=O)N[C@@H](Cc1c[nH]c2ccccc12)C(=O)O)[C@@H](C)CC [Endothelin‐1, reference compound]
- Solubility/precipitation of cell‐free product ([1]; reducing conditions (DTT), without DsbA, listed as ET‐1): strong precipitation; also recorded: heavy precipitation
- Solubility/precipitation of cell‐free product [1, 6]: did not display any precipitates

Molecule: CCCCn1c(-c2ccccc2)nc(-c2ccccc2)c1CN(Cc1ccc2c(c1)OCO2)Cc1ccc2c(c1)OCO2 [NDT 9513727, N,N‐Bis(1,3‐benzodioxol‐5‐ylmethyl)‐1‐butyl‐2,4‐diphenyl‐1H‐imidazole‐5‐methanamine]
- Ki [2]: 169 nM and 54.5 nM
- IC50 [3]: 11.6 ± 1 nM

Molecule: ^125I‐ET‐1: ^125I‐labelled endothelin‐1
- Kd [4]: 0.33 nM

B1: C5a^CF: cell‐free‐synthesized complement 5a containing the N‐terminal 6xHis tag and TEV cleavage site (protein, UniProt P01031 678-751, looked up)
C5a anaphylatoxin: TLQKKIEEIAAKYKHSVVKKCCYDGACVNNDETCEQRAARISLGPRCIKAFTECCVVASQLRANISHKDMQLGR
modifications: C5a anaphylatoxin N-terminal 6xHis tag and TEV site
notes: cell‐free‐synthesized complement 5a containing the N‐terminal 6xHis tag and TEV cleavage site
- Solubility/precipitation of cell‐free product ([1]; reducing conditions (DTT), without DsbA): strong precipitation; also recorded: insoluble and can only be detected in the pellet fraction; also recorded: heavy precipitation
- Solubility/precipitation of cell‐free product [1, 6]: did not display any precipitates; also recorded: can be detected in the soluble fraction

B2: ^125I‐C5a: commercially available ^125I‐C5a (protein, UniProt P01031 678-751, looked up)
C5a anaphylatoxin: B1 C5a anaphylatoxin
modifications: C5a anaphylatoxin 125I-labelled
notes: commercially available ^125I‐C5a
- Kd [5]: 1 nM
